Test system: NPC1
Assay type: cell-based, Chinese Hamster

trehalose dimycolate [TDM]
resistance to phenotype induction by TDM versus extent of NPC1 overexpression: cells over-expressing NPC1 by 15-fold were more resistant than those over-expressing NPC1 5-fold | induction of NPC cellular phenotypes by TDM in CHO cells overexpressing NPC1, versus wild-type cells (FIG. 10B): more resistant to induction of NPC cellular phenotypes than wild-type cells

Reference: patent publication US20180125796A1, “TREATMENT OF MYCOBACTERIAL INFECTION” (priority 2015, published 2018)
